Measurements taken from patent US20200237766A1, “PKM2 ACTIVATORS IN COMBINATION WITH REACTIVE OXYGEN SPECIES FOR TREATMENT OF CANCER” (TOLERO PHARMACEUTICALS, INC., priority 2017, published 2020).
Where two headings read alike, the source gives them in different places.

Target: PKM2 (Homo sapiens, UniProt P14618)
Assay: PKM2 activation biochemical assay (AC50 / max. response vs fructose 1,6-bisphosphate)
Conditions: for Max. Resp. (%): % maximum response in a biochemical assay as compared with Fructose 1,6-bisphosphate
[1] = biochemical assay, read-out: PKM2 AC50

PKM2, sequence (P14618 whole entry): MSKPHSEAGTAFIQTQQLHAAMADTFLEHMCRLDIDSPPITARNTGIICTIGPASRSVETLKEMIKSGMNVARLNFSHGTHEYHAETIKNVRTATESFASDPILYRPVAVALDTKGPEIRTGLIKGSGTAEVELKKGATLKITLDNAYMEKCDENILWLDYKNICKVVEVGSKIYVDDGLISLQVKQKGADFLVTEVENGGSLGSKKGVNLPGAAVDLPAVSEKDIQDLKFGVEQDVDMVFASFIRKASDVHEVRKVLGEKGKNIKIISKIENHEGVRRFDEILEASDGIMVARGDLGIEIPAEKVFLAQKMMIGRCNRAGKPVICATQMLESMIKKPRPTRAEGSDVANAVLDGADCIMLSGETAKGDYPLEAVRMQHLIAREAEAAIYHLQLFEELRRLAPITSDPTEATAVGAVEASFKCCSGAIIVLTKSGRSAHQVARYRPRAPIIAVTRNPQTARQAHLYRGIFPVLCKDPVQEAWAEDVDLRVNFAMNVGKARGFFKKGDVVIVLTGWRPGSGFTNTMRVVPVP

Row | Structure (SMILES) | AC50 | Max. Resp. (%) | AC50 [1]
1 | O=C(c1cc(C(F)(F)F)n[nH]1)N(Cc1ccccc1Cl)C1CCOCC1 [Compound 35] | 5080 nM | 59% | –
2 | O=C(c1cc(C(F)(F)F)n[nH]1)N(CCC1CCCOC1)Cc1ccccc1Cl (centres unmarked) [Compound 36] | – | 88% | 1220 nM
3 | CC(C)OCCN(Cc1ccccc1Cl)C(=O)c1cc(C(F)(F)F)n[nH]1 [Compound 37] | – | 37% | 42000 nM
4 | CCOCCCN(Cc1ccccc1Cl)C(=O)c1cc(C(F)(F)F)n[nH]1 [Compound 38] | – | 47% | 33000 nM
5 | O=C(c1cc(C(F)(F)F)n[nH]1)N(CCOC1CCCC1)Cc1ccccc1F [Compound 39] | – | 30% | 47000 nM
6 | O=C(c1cc(C(F)(F)F)n[nH]1)N(CCC1CCOC1)Cc1c(F)cccc1F (centres unmarked) [Compound 40] | 1170 nM | 114% | –
7 | O=C(c1cc(C(F)(F)F)n[nH]1)N(CCC1CCOCC1)Cc1ccccc1F [Compound 41] | – | 118% | 1260 nM
8 | CCOCCN(Cc1c(Cl)cccc1Cl)C(=O)c1cc(C(F)(F)F)n[nH]1 [Compound 42] | – | 76% | 8780 nM
9 | O=C(c1cc(C(F)(F)F)n[nH]1)N(CCC1CCOC1)Cc1ccccc1Cl (centres unmarked) [Compound 43] | 1330 nM | 110% | –
10 | O=C(c1cc(C(F)(F)F)n[nH]1)N(CCC1CCCCO1)Cc1ccccc1Cl (centres unmarked) [Compound 44] | – | 32% | 50000 nM
11 | O=C(c1cc(C(F)(F)F)n[nH]1)N(Cc1ccccc1F)CC1CCOCC1 [Compound 45] | – | 52% | 25100 nM
12 | O=C(c1cc(C(F)(F)F)n[nH]1)N(CCC1CCCO1)Cc1ccccc1F (centres unmarked) [Compound 46] | – | 70% | 13400 nM
13 | CO[C@H]1CC[C@H](N(Cc2ccccc2F)C(=O)c2cc(C(F)(F)F)n[nH]2)CC1 [Compound 47] | – | 89% | 435 nM
14 | CO[C@H]1CC[C@H](N(Cc2cccc(F)c2)C(=O)c2cc(C(F)(F)F)n[nH]2)CC1 [Compound 48] | – | 80% | 8580 nM
15 | CO[C@H]1CC[C@H](N(Cc2c(F)cccc2F)C(=O)c2cc(C(F)(F)F)n[nH]2)CC1 [Compound 49] | – | 122% | 914 nM
16 | CO[C@H]1CC[C@H](N(Cc2cc(F)ccc2F)C(=O)c2cc(C(F)(F)F)n[nH]2)CC1 [Compound 50] | 1670 nM | 90% | –
17 | CO[C@H]1CC[C@H](N(Cc2cc(F)cc(F)c2)C(=O)c2cc(C(F)(F)F)n[nH]2)CC1 [Compound 51] | – | 31% | 50400 nM

Row | Structure (SMILES) | AC50 | Max. Resp. (%) | AC50 [1]
18 | CO[C@H]1CC[C@H](N(Cc2ccccc2Cl)C(=O)c2cc(C(F)(F)F)n[nH]2)CC1 [Compound 52] | – | 100% | 879 nM
19 | CC(C)O[C@H]1CC[C@H](N(Cc2ccccc2Cl)C(=O)c2cc(C(F)(F)F)n[nH]2)CC1 [Compound 53] | – | 63% | 2290 nM
20 | CO[C@H]1CC[C@H](N(Cc2cccc(N)c2)C(=O)c2cc(C(F)(F)F)n[nH]2)CC1 [Compound 54] | – | 93% | 365 nM
21 | CCO[C@H]1CC[C@H](N(Cc2ccccc2F)C(=O)c2cc(C(F)(F)F)n[nH]2)CC1 [Compound 55] | 469 nM | 101% | –
22 | CO[C@H]1CC[C@H](N(Cc2ncccc2Cl)C(=O)c2cc(C(F)(F)F)n[nH]2)CC1 [Compound 56] | 2580 nM | 48% | –
23 | O=C(c1cc(C(F)(F)F)n[nH]1)N(CCC1CCC2(CC1)OCCO2)Cc1ccccc1F [Compound 59] | – | 100% | 494 nM
24 | O=C1CCC(CCN(Cc2ccccc2F)C(=O)c2cc(C(F)(F)F)n[nH]2)CC1 [Compound 60] | – | 105% | 101 nM
25 | O=C(c1cc(C(F)(F)F)n[nH]1)N(CCC1CCS(=O)(=O)C1)Cc1ccccc1Cl (centres unmarked) [Compound 62] | 273 nM | 105% | –
26 | O=C(c1cc(C(F)(F)F)n[nH]1)N(CCC1CCS(=O)(=O)C1)Cc1ccccc1F (centres unmarked) [Compound 63] | – | 87% | 240 nM
27 | O=C(c1cc(C(F)(F)F)n[nH]1)N(CCC1CCS(=O)(=O)C1)Cc1c(Cl)cccc1Cl (centres unmarked) [Compound 64] | – | 71% | 3780 nM
28 | O=C(c1cc(C(F)(F)F)n[nH]1)N(CCC1CCS(=O)(=O)C1)Cc1c(F)cccc1F (centres unmarked) [Compound 66] | 375 nM | 102% | –
29 | O=C(c1cc(C(F)(F)F)n[nH]1)N(CCC1CCS(=O)(=O)C1)Cc1cccc(F)c1 (centres unmarked) [Compound 67] | 1630 nM | 95% | –
30 | O=C(c1cc(C(F)(F)F)n[nH]1)N(CCC1CCS(=O)(=O)C1)Cc1cccc(F)c1F (centres unmarked) [Compound 68] | – | 103% | 766 nM
31 | O=C(c1cc(C(F)(F)F)n[nH]1)N(CCC1CCS(=O)(=O)C1)Cc1cc(F)cc(F)c1 (centres unmarked) [Compound 69] | – | 74% | 1830 nM
32 | O=C(c1cc(C(F)(F)F)n[nH]1)N(CCC1CCS(=O)(=O)C1)Cc1cc(F)ccc1F (centres unmarked) [Compound 70] | – | 91% | 884 nM
33 | O=C(c1cc(C(F)(F)F)n[nH]1)N(Cc1ccccc1F)CC1CCS(=O)(=O)CC1 [Compound 71] | – | 71% | 10200 nM
34 | O=C(c1cc(C(F)(F)F)n[nH]1)N(Cc1ccccc1Cl)CC1CCS(=O)(=O)CC1 [Compound 72] | – | 22% | 19700 nM
